Patent US8906943B2, “Synthetic compounds and methods to decrease nicotine self-administration” (priority 2010, dated 2014)
Like-named read-outs stand apart in the source and are kept apart here. Marks after values point to notes of the source that are not given here. One block for each compound: values may come before it.

Legend:
human CYP2A6 = human CYP2A6 (Homo sapiens (Human), UniProt P11509); experiment: Inhibition of human CYP2A6-mediated coumarin 7-hydroxylation; format: biochemical; settings: for Ki: read-out: Ki human CYP 2A6
human CYP2A6, sequence (P11509 whole entry): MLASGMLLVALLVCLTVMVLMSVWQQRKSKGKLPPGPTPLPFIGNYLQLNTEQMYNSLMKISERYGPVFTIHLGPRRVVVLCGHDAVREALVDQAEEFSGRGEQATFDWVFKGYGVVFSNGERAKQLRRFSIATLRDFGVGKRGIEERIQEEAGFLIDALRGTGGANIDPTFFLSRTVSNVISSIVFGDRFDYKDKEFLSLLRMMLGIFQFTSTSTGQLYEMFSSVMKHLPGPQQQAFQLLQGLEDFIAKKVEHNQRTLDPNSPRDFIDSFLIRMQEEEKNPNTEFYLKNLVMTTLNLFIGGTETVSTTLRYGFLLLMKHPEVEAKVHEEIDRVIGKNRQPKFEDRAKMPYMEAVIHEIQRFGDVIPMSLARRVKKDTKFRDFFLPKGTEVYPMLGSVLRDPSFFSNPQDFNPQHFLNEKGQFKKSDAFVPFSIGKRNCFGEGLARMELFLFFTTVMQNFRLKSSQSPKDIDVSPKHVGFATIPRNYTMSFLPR
Protocol: Our first studies were with highly purified human CYP2A6 that provided a convenient and relatively high-throughput measure of CYP2A6 inhibition. Full dose-response IC50 values (nine concentrations) were determined (Table 1).

[1] = test system: nicotine self-administration in male Wistar rats; experiment: Nicotine i.v. self-administration (IVSA) in rats, FR1 schedule; format: in vivo, rat; settings: for Number of nicotine infusions, Compound (15 mg/kg): 15 mg/kg i.p. 30 minutes before i.v. self-administration of 0.03 mg/kg/infusion nicotine; for % Change (decrease in nicotine self-administration): versus vehicle; for Number of nicotine infusions, Compound (25 mg/kg): 25 mg/kg i.p. 30 minutes before i.v. self-administration of 0.03 mg/kg/infusion nicotine; for effect on nicotine intake, ANOVA of dose response: 1-hour self-administration sessions; for ED50: Rattus norvegicus, iv, rats, read-out: apparent ED50, nicotine IVSA
Protocol: Male, Wistar rats trained in a paradigm of nicotine i.v. self-administration (IVSA) generally related to a modification of a previously published protocol (Watkins et al., Pharmacol Biochem Behavior 62, 743-751 (1999)). Rats were treated with test compounds I-7. […] At 3.0 mg/kg, responding for nicotine was decreased by 62% when compared to control (vehicle-treated) conditions. […] On the basis of these initial studies, more extensive work was done and IVSA studies of compounds 8, 10 and 11 were conducted.
As with all the compounds examined in this study, there was no carry-over effect. […] The dose-effect function for treatment of 11 on nicotine self-administration is shown in [FIG. 2].

hCYP2B6 = hCYP2B6 (Homo sapiens (Human), UniProt P20813); experiment: CYP2B6 inhibition, vivid blue substrate O-dealkylation; format: biochemical; settings: for IC50: ND = no detectable inhibition
hCYP2B6, sequence (P20813 whole entry): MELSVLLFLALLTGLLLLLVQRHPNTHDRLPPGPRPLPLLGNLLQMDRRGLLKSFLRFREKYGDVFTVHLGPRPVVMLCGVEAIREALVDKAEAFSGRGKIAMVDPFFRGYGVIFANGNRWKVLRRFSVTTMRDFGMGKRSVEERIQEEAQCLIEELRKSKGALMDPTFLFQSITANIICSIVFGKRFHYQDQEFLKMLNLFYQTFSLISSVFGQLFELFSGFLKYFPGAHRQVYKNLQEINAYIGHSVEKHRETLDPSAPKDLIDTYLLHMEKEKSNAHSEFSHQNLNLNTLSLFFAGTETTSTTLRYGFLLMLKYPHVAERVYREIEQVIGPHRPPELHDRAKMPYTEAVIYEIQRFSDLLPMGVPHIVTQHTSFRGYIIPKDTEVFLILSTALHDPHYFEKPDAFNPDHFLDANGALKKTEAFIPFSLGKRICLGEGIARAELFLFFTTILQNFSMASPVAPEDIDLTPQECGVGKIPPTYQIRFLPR
Protocol: (§1) To gain insight into the selectivity of the synthetic compounds for inhibition of other CYPs, we examined the major CYPs present in human liver. […] A typical incubation mixture (final volume 0.25 mL) contained 50 mM Tris or KPhos buffer (pH 7.5), 0.5 mM NADP^+, 2.0 mM G6P, 1 U of G6P dehydrogenase and 0.6 mg DETAPAC and the inhibitor was added last to minimize interaction with the protein. After mixing on ice, the reaction was initiated by the addition of substrate and incubated at 37° C. with shaking in air. Organic extracts were analyzed by fluorescence (for fluorometric substrates) or injected onto a Hitachi L-7100 system equipped with a Hitachi L-7400 UV detector. Separations were done with an Altex Ultrasphere ODS (4.6 mm×250 mm, 5 μm) column and analytes were eluted with an isocratic solvent system consisting of water/acetonitrile/methanol (30:10:60, v/v/v) at a flow rate of 1.0 mL/min. Quantification of substrate and metabolite was determined from peak areas of the chromatogram and comparison with standard curves. IC50 values were determined with GraphPad Prism and kinetic data was converted into IC50 values. Each kinetic determination was reported as the mean±SD as described below. […] To measure CYP2A6 activity, coumarin 7-hydroxylation was determined as described in Denton et al., supra. To measure CYP3A4 activity, testosterone 6-hydroxylation was determined as described in Denton et al., supra. To measure CYP2E1, CYP2B6, CYP2C9, CYP2C19 and CYP2D6 activity, isozyme specific vivid blue substrate O-dealkylation was determined via a modified PanVera Vivid Assay Protocol as described in Denton et al., supra.

CYP2B1 = CYP2B1 (Rattus norvegicus (Rat), UniProt P00176); experiment: Inhibition of rat CYP2B1; format: biochemical; settings: pH 7.5, Inhibitor present at 100 μM, read-out: rCYP2B1 % inhibition
CYP2B1, sequence (P00176 whole entry): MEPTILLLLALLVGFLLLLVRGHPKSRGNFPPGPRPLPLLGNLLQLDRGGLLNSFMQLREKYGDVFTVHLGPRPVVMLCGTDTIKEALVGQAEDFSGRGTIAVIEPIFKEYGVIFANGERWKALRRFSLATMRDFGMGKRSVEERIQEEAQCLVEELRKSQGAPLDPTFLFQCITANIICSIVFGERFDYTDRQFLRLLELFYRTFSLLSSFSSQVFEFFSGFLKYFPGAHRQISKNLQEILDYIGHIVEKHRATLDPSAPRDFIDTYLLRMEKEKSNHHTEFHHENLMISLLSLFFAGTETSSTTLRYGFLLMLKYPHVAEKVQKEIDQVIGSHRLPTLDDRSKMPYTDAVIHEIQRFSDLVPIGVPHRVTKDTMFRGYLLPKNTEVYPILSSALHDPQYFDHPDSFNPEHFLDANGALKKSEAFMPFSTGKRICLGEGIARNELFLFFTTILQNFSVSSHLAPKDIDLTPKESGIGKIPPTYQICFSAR

CYP2D6 = CYP2D6 (Homo sapiens (Human), UniProt P10635); experiment: CYP2D6 inhibition, vivid blue substrate O-dealkylation; format: biochemical; settings: pH 7.5, probe isozyme specific vivid blue substrate (O-dealkylation), mean of triplicate, read-out: CYP2D6 Percent Inhibition
CYP2D6, sequence (P10635 whole entry): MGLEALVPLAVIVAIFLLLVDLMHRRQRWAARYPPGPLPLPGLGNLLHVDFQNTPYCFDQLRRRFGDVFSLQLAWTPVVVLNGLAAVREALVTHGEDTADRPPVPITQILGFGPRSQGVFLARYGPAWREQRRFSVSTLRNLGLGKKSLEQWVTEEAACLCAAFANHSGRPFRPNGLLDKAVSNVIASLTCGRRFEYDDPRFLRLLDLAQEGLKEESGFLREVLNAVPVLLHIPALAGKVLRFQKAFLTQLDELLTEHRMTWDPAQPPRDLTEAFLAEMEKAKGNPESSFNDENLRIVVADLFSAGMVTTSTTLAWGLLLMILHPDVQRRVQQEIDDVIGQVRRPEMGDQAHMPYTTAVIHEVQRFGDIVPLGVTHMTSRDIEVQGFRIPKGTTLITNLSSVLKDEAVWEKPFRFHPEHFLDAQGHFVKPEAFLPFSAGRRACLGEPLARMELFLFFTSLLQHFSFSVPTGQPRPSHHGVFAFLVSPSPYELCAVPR
Protocol: as §1

CYP2C9 = CYP2C9 (Homo sapiens (Human), UniProt P11712); experiment: CYP2C9 inhibition, vivid blue substrate O-dealkylation; format: biochemical; settings: pH 7.5, probe isozyme specific vivid blue substrate (O-dealkylation), mean of triplicate, read-out: CYP2C9 Percent Inhibition
CYP2C9, sequence (P11712 whole entry): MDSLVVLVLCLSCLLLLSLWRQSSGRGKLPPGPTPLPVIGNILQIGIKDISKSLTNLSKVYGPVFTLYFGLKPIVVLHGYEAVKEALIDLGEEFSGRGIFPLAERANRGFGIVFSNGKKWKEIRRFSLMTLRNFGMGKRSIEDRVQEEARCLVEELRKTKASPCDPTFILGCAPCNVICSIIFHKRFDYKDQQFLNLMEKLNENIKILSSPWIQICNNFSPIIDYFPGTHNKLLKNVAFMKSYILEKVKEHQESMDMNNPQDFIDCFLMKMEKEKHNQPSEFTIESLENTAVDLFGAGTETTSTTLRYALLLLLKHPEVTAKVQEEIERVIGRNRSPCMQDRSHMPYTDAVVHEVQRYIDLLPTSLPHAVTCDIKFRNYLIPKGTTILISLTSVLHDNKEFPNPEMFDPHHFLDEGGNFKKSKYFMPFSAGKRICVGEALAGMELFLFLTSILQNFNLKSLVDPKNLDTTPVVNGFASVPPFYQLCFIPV
Protocol: as §1

CYP2E1 = CYP2E1 (Homo sapiens (Human), UniProt P05181); experiment: CYP2E1 inhibition, vivid blue substrate O-dealkylation; format: biochemical; settings: for inhibition of human CYP 2E1 (in words): 10 μM; for inhibition at 10 µM: human, pH 7.5, probe isozyme specific vivid blue substrate (O-dealkylation), mean of triplicate, read-out: CYP2E1 Percent Inhibition
CYP2E1, sequence (P05181 whole entry): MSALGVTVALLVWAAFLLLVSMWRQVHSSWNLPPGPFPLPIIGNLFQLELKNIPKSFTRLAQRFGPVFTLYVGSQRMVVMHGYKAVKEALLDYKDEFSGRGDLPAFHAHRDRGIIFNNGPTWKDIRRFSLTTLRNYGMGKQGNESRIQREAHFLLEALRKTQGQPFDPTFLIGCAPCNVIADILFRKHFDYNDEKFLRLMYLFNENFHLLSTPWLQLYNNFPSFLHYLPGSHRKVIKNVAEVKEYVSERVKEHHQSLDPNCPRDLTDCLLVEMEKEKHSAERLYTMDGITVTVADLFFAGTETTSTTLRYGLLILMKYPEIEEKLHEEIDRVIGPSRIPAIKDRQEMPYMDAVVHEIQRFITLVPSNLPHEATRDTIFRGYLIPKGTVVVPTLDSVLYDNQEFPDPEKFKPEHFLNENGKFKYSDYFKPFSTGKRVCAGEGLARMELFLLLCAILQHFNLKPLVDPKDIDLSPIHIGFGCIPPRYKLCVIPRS
Protocol: as §1

CYP2C19 = CYP2C19 (Homo sapiens (Human), UniProt P33261); experiment: CYP2C19 inhibition, vivid blue substrate O-dealkylation; format: biochemical; settings: pH 7.5, probe isozyme specific vivid blue substrate (O-dealkylation), mean of triplicate, read-out: CYP2C19 Percent Inhibition
CYP2C19, sequence (P33261 whole entry): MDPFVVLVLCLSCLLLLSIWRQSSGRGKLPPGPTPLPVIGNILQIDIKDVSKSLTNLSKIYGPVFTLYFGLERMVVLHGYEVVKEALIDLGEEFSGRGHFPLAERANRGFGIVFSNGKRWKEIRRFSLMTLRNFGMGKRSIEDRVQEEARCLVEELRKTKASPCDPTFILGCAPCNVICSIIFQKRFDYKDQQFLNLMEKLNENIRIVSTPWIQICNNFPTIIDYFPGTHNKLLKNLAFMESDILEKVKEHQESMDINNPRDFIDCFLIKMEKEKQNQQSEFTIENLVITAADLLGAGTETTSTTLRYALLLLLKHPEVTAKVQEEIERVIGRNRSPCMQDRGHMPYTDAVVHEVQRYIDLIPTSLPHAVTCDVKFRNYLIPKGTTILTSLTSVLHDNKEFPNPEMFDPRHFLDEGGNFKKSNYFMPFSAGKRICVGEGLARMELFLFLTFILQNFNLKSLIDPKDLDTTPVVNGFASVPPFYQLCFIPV
Protocol: as §1

food intake in rats = experiment: Order and food effects, operant food sessions; format: in vivo, rat; settings: for Food Effects: mean ± SEM
Text: The conclusion is that the effect of 10 and 11 was selective and highly efficacious on a biological target and not a promiscuous non-specific behavioral effect.

CYP3A4 = CYP3A4 (Homo sapiens (Human), UniProt P08684); experiment: in vitro; settings: pH 7.5
CYP3A4, sequence (P08684 whole entry): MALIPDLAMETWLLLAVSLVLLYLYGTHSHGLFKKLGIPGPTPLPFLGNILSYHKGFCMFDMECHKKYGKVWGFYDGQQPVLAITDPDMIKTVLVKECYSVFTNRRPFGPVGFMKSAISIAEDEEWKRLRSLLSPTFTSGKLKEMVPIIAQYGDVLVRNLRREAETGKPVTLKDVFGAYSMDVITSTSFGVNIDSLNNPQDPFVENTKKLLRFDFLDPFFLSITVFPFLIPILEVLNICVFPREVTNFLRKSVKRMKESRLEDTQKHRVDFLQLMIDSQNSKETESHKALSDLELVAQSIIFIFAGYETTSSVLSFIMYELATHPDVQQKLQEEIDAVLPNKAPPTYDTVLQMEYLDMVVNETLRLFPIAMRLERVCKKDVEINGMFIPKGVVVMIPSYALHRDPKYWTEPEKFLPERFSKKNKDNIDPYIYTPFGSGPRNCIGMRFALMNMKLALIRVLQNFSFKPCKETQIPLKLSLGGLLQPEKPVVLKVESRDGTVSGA
Protocol: as §1, with “Separations were done with an Altex Ultrasphere ODS (4.6 mm×250 mm, 5 μm) column and analytes were eluted with an isocratic solvent system consisting of water/acetonitrile/methanol (30:10:60, v/v/v) at a flow rate of 1.0 mL/min.” left out, “values.” for “values. Each kinetic determination was reported as the mean±SD as described below.”

[2] = Table 3, read-out: CYP2A6 Inhibition IC50
[3] = Table 1, purified human CYP2A6, nine concentrations, read-out: hCYP2A6 IC50

IC50 (human CYP2A6; [3]): 800 nM | IC50 (hCYP2B6): 67400 nM | inhibition at 100 µM (CYP2B1): 55.3%
SMILES: NCc1cc(-c2cccnc2)no1 [Compound 2]
Number of nicotine infusions, Compound (15 mg/kg) ([1]; FR1): 8.4 ± 1.7 | % Change (decrease in nicotine self-administration) ([1]; 15 mg/kg i.p.): 19.2% | Number of nicotine infusions, Compound (25 mg/kg) ([1]; FR1): 5.6 ± 1.6^d | % Change (decrease in nicotine self-administration) ([1]; 25 mg/kg i.p.): 60. %

inhibition at 10 µM (CYP2D6): 48% | inhibition at 10 µM (CYP2C9): 32% | inhibition of human CYP 2E1 (in words) (CYP2E1): some inhibition | inhibition at 10 µM (CYP2E1): 87% | IC50 (human CYP2A6; [3]): 160 nM | Ki (human CYP2A6): 80 nM | IC50 (hCYP2B6): 12000 nM | inhibition at 100 µM (CYP2B1): 35.5% | inhibition at 10 µM (CYP2C19): 43%
SMILES: Clc1ccc(Cn2ccnc2)cc1 [Compound 3, N-(4-Chlorobenzyl)imidazole]
Number of nicotine infusions, Compound (15 mg/kg) ([1]; FR1): 13.0 ± 2.7 | % Change (decrease in nicotine self-administration) ([1]; 15 mg/kg i.p.): 23.6% | inhibition of human CYP 2B6 (in words) (hCYP2B6): inhibited human CYP 2B6 to a certain extent

inhibition at 100 µM (CYP2B1): 42.7%
SMILES: NCc1ccc(-c2cccnc2)s1 [Compound 4]
Number of nicotine infusions, Compound (15 mg/kg) ([1]; FR1): 11.8 ± 3.2 | % Change (decrease in nicotine self-administration) ([1]; 15 mg/kg i.p.): 23.4%

IC50 (human CYP2A6; [3]): > 200000 nM | Ki (human CYP2A6): > 200000 nM | inhibition at 100 µM (CYP2B1): 43.3%
SMILES: c1cncc(Cn2ccnc2)c1 [Compound 7, N-(3-Pyridylmethyl)imidazole]
Number of nicotine infusions, Compound (15 mg/kg) ([1]; FR1): 7.5 ± 1.9^d | % Change (decrease in nicotine self-administration) ([1]; 15 mg/kg i.p.): 28.6%

inhibition at 100 µM (CYP2B1): 53.5%
SMILES: c1cc(CCn2ccnc2)ccn1 [Compound 9, N-(4-Pyridylethyl)imidazole]
nicotine self-administration under a FR schedule (in words) ([1]; 15 mg/kg, i.p., 30-min prior): decreased nicotine self-administration

inhibition at 10 µM (CYP2D6): 34% | Food Effects (food intake in rats; Dose 0.5 mg/kg): 80 ± 1.8 | Food Effects (food intake in rats; Dose 1.58 mg/kg): 79 ± 2.5 | Food Effects (food intake in rats; Dose 5.0 mg/kg): 77 ± 3.2 | inhibition at 10 µM (CYP2C9): 44% | inhibition of human CYP 2E1 (in words) (CYP2E1): some inhibition | inhibition at 10 µM (CYP2E1): 89% | IC50 (human CYP2A6; [3]): 170000 nM | IC50 (hCYP2B6): 11000 nM | inhibition at 100 µM (CYP2B1): 56.9% | inhibition at 10 µM (CYP2C19): 24% | inhibition at 10 µM (CYP3A4): 27%
SMILES: c1cn(CC2CCCCC2)cn1 [Compound 10, N-(Cyclohexylmethyl)imidazole]
ED50 [1]: 4 mg/kg | effect on nicotine intake, ANOVA of dose response ([1]; i.p.): significant effect | inhibition of human CYP 2B6 (in words) (hCYP2B6): inhibited human CYP 2B6 to a certain extent

The next lines start with the compound.

SMILES: N[C@@H]1C[C@H]1c1ccccc1 (racemic) [Tranylcypromine, reference compound]
IC50 (human CYP2A6; [2]): 233 nM

SMILES: NCc1cc(-c2cccnc2)n[nH]1 [Compound 1]
Number of nicotine infusions, Compound (15 mg/kg) ([1]; FR1): 11.6 ± 2.9 | % Change (decrease in nicotine self-administration) ([1]; 15 mg/kg i.p.): 14.7% | IC50 (human CYP2A6; [3]): 600 nM | IC50 (hCYP2B6): 66400 nM | inhibition at 100 µM (CYP2B1): 53.8%

SMILES: Cc1ccsc1-c1cccnc1 [Compound 5]
Number of nicotine infusions, Compound (15 mg/kg) ([1]; FR1): 8.8 ± 1.6 | Number of nicotine infusions, Compound (25 mg/kg) ([1]; FR1): 1.6 ± 0.7^d | IC50 (human CYP2A6; [3]): […] | inhibition at 100 µM (CYP2B1): 47.9%

SMILES: NCc1ccc(-c2cccnc2)o1 [Compound 6]
Number of nicotine infusions, Compound (15 mg/kg) ([1]; FR1): 16.8 ± 2.3^d | % Change (decrease in nicotine self-administration) ([1]; 15 mg/kg i.p.): 27.6% | Number of nicotine infusions, Compound (25 mg/kg) ([1]; FR1): 8.3 ± 2.1^d | % Change (decrease in nicotine self-administration) ([1]; 25 mg/kg i.p.): 64.2% | IC50 (human CYP2A6; [3]): 200 nM | inhibition at 100 µM (CYP2B1): 46.6%

SMILES: c1cncc(-c2c[nH]cn2)c1 [Compound 8]
effect on nicotine intake, ANOVA of dose response ([1]; i.p.): failed to reveal a significant effect | IC50 (human CYP2A6; [3]): 800000 nM | IC50 (human CYP2A6; [2]): 800 nM

SMILES: c1ccc(CCn2ccnc2)cc1 [Compound 11, 1-Phenethyl-2-imidazol-1-yl]
ED50 [1]: 3 mg/kg | effect on nicotine intake, ANOVA of dose response ([1]; i.p.): significant effect | inhibition at 10 µM (CYP2D6): 62% | effect on food intake (in words) (food intake in rats; 5 mg/kg, 30-min operant food sessions): significant suppression | Food Effects (food intake in rats; Dose 2.8 mg/kg): 79 ± 1.3 | Food Effects (food intake in rats; Dose 5.0 mg/kg): 63 ± 5.6 | inhibition at 10 µM (CYP2C9): 13% | inhibition of human CYP 2E1 (in words) (CYP2E1): some inhibition | inhibition at 10 µM (CYP2E1): 88% | IC50 (human CYP2A6; [3]): 618000 nM | IC50 (human CYP2A6; [2]): 618 nM | inhibition of human CYP 2B6 (in words) (hCYP2B6): inhibited human CYP 2B6 to a certain extent | IC50 (hCYP2B6): > 20000 nM | inhibition at 100 µM (CYP2B1): 67.7% | inhibition at 10 µM (CYP2C19): 21% | inhibition at 10 µM (CYP3A4): 63%

SMILES: CNC1(C)C2CCC(C2)C1(C)C (centres unmarked) [Mecamylamine, reference compound]
decrease in responding for nicotine versus vehicle ([1]; 3.0 mg/kg, s.c., 30 minutes before the session, FR1): 62%
